According to patent US20220298486A1, “UROTHELIAL CELL INDUCTION AGENT AND METHOD FOR INDUCING UROTHELIAL CELLS” (CellAxia Inc, priority 2019, published 2022):

Legend:
Type in all cases: cell-based, human
[1] = system: aHDFs into which F, T, L, and K had been introduced; test: examination of medium components (modified Uromedium) for selective proliferation of dUCs; conditions: for influence of concentration of the component on UPK2 mRNA: Uromedium with modified concentration
Method: (A) aHDFs into which F, T, L, and K had been introduced were cultured in “Uromedium” medium with modified concentrations of insulin, hydrocortisone, EGF, and IBMX. On Day 21, total RNA was extracted from aHDFs and control aHDFs free of gene introduction, and the gene expression level of UPK2 was measured by real-time RT-PCR. The values shown by mean±SD were normalized by β-actin mRNA expression and shown relative to the value of aHDFs free of gene introduction as 1.0 (N=3). (B) Phase-contrast microscopic images of aHDFs into which F, T, L, and K were introduced, and cultured for 21 days in “Uromedium” medium in which the concentration of hydrocortisone was modified to 0-fold and the concentration of IBMX was modified to 10-fold. Imaging magnification: ×10 (C) Phase-contrast microscopic images of aHDFs into which F, T, L, and K were introduced, and cultured for 21 days in “Uromedium” medium with or without addition of 1 μM tranylcypromine. The bar is 100 μm. (D) Phase-contrast microscopic images of aHDFs into which F, T, L, and K were introduced or not introduced, and cultured for 21 days in “Uromedium” medium or “UCM” medium. The bar is 100 μm.
“Uromedium” medium was produced according to the method of Osborn et al. (Osborn S L, (2014) Stem Cell Transl Med 3(5):610-619.). In summary fashion, the “Uromedium” medium is composed of EpiLife™ medium supplemented with 60 μM calcium (Gibco; MEP1500CA), 60 μg/mL bovine brain hypophysis extract (Gibco), 5 μg/mL human gene recombinant insulin (Diagnocine), 500 ng/mL hydrocortisone (Tokyo Chemical Industry Co., Ltd.), gentamicinamphotericin (Gibco), 2% FBS, 0.1 ng/mL human gene recombinant epidermal growth factor (EGF) (RSD), and 100 μM 3-isobutyl 1-methylxanthine (IBMX) (Sigma-Aldrich).
The “UCM” medium is composed of EpiLife™ medium supplemented with 60 μM calcium, 60 μg/mL bovine brain hypophysis extract, 5 μg/mL human gene recombinant insulin, gentamicinamphotericin, 2% FBS, 0.01 ng/mL human gene recombinant EGF, 1 mM IBMX, and 1 μM tranylcypromine (Abcam).

aHDFs [2] = test: real-time RT-PCR of marker mRNA in aHDFs after retroviral gene introduction; conditions: F, T, L, K-introduced aHDFs; plates uncoated or coated with collagen, poly-L-lysine, laminin; day 21
Method: (§1) aHDFs were seeded on a laminin-coated 12-well plate or a laminin-uncoated 12-well plate, and the gene was introduced using a retroviral vector. The cells were cultured in CnT-Prime medium or other medium, and 21 days later, observation with a phase contrast microscope, real-time PCR, and analysis of immunocytochemistry were performed. The cells were passaged in fresh culture plates and used for RNA sequencing and penetration assay. In the in vivo experiment, cells into which F, T, L, and K had been introduced were transurethrally transplanted into the injured bladder cavity of an interstitial cystitis mouse through a catheter.
(§2) aHDFs were seeded in 12-well plates coated with atelocollagen (KOKEN; I-PC30), poly-L-lysine (ScienCell), or laminin (Easy iMatrix-511 silk) at a density of 3×10^4 cells/well. After 24 hr, the medium was replaced with the retroviral suspension that was filtrated through a 0.45 μm pore filter (Toyo Roshi Kaisha, Ltd., ADVANTEC) and supplemented with 4 μg/mL polybrene. The next day, the culture supernatant was replaced with Standard Medium free of virus, and replaced with CnT-Prime or “UCM” medium 3 days later. The culture medium was changed every 3 or 4 days.
Total RNA was extracted using RNeasy Mini Kit (Qigen) according to the manufacturer's protocol. […] The relative mRNA expression levels were calculated from the following formula: […]

aHDFs [3] = test: epithelial (urothelial) cell colony formation, phase contrast microscope observation; conditions: F, T, L, K-introduced aHDFs; plates uncoated or coated with collagen, poly-L-lysine, laminin; day 21
Method: as §1, §2

## N[C@@H]1C[C@H]1c1ccccc1 (racemic) [tranylcypromine]
[1]; Uromedium with addition of 1 μM tranylcypromine, 21 days
  formation of urothelial cell colonies: enhanced

## CC(C)Cn1c(=O)n(C)c(=O)c2[nH]cnc21 [IBMX, 3-isobutyl 1-methylxanthine]
[1]; 1-10 mM IBMX in Uromedium, day 21
  expression of UPK2 mRNA: played a beneficial role
[1]; medium containing 10 mM IBMX, 21 days
  epithelial cell colony formation: form epithelial cell colonies

## C[C@]12CCC(=O)C=C1CC[C@@H]1[C@@H]2[C@@H](O)C[C@@]2(C)[C@H]1CC[C@]2(O)C(=O)CO [hydrocortisone]
[1]; day 21
  influence of concentration of the component on UPK2 mRNA: not definitive

## EGF: human gene recombinant epidermal growth factor
[1]; addition of 0.01-1 ng/mL EGF, day 21
  mRNA expression of UPK2: increased

## insulin: human gene recombinant insulin
[1]; day 21
  influence of concentration of the component on UPK2 mRNA: not definitive

## laminin
aHDFs [2]
  expression of UPK1b and UPK2 mRNAs by plate coating: the highest
aHDFs [3]
  epithelial cell colony formation by plate coating: formed only in laminin-coated plates
